Common to all, as to assay: KINOMEscan competitive binding, whole panel
Experiment [1] concerns the target T1, panel of 203 kinases (Homo sapiens, UniProt P08581).
T1 construct: purchased DiscoverX (KINOMEscan)
Conditions: 10 µM, n=1; kinase MET; read-out: Percent inhibition MET. In a few lines: (§1)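 Kinases were expressed as T7 bacteriophage fusions, and test compounds competed with immobilized ATP-site probe ligands for binding. Kinase remaining bound to the solid-support probe was quantified, and values are given as percentage inhibition.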

The target in experiment [2] is T2, panel of 203 kinases (Homo sapiens, UniProt P41240).
T2 construct: purchased DiscoverX (KINOMEscan)
T2 sequence (P41240 whole entry): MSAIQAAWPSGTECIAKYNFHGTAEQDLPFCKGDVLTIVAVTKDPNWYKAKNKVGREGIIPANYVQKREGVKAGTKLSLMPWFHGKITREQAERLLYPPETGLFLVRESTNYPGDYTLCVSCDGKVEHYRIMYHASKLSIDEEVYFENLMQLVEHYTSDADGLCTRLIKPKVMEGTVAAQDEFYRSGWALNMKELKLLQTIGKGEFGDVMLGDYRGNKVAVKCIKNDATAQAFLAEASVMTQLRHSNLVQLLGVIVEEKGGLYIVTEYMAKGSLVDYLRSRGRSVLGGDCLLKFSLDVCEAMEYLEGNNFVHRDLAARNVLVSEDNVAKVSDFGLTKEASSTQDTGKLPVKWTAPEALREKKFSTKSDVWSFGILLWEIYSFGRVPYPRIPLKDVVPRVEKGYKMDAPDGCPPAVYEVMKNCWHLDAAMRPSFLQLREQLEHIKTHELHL
Conditions: 10 µM, n=1; kinase CSK; read-out: Percent inhibition CSK. The gist of the method:
as §1

In experiment [3] the target is T3, panel of 203 kinases (Homo sapiens, UniProt Q9UQB9).
T3 construct: purchased DiscoverX (KINOMEscan)
T3 sequence (Q9UQB9 1-309): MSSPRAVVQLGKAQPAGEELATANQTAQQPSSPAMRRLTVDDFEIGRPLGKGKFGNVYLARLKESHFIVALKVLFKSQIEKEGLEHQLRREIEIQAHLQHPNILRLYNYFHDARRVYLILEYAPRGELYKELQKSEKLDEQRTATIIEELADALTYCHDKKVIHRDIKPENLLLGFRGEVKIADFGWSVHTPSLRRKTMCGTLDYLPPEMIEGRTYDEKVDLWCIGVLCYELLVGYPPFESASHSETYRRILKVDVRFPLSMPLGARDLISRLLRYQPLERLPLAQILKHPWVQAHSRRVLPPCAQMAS
The settings on record: 10 µM, n=1; kinase AURKC; read-out: Percent inhibition AURKC. In a few lines:
as §1

Experiment [4] addresses T4, panel of 203 kinases (Homo sapiens, UniProt Q5VT25).
T4 construct: purchased DiscoverX (KINOMEscan)
Conditions: 10 µM, n=1; kinase MRCKA; read-out: Percent inhibition MRCKA. In a few lines: as §1

Experiment [5] addresses T5, panel of 203 kinases (Homo sapiens, UniProt Q08881).
T5 construct: purchased DiscoverX (KINOMEscan)
T5 sequence (Q08881 1-620): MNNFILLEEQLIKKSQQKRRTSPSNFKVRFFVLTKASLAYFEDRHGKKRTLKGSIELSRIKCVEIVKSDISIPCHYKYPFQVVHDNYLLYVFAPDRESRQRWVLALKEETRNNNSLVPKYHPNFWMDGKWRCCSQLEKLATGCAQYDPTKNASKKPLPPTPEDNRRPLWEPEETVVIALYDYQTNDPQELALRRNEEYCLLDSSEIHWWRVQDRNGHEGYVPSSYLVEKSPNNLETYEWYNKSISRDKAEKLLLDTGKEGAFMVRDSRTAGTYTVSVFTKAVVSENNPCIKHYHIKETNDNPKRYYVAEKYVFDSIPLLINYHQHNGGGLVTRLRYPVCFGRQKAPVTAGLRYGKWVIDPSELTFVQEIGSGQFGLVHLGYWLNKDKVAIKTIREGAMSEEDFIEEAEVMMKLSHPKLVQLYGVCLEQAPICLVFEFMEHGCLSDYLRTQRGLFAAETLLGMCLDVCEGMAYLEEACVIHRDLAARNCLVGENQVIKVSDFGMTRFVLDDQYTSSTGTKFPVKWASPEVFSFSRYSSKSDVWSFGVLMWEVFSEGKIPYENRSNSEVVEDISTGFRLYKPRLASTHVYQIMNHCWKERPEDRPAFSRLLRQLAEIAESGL
The settings on record: 10 µM, n=1; kinase ITK; read-out: Percent inhibition ITK. In a few lines: as §1

Experiment [6] addresses T6, panel of 203 kinases (Homo sapiens, UniProt P51451).
T6 construct: purchased DiscoverX (KINOMEscan)
Conditions: 10 µM, n=1; kinase BLK; read-out: Percent inhibition BLK. In a few lines:
as §1

The target in experiment [7] is T7, panel of 203 kinases (Homo sapiens, UniProt P31749).
T7 construct: purchased DiscoverX (KINOMEscan)
The settings on record: 10 µM, n=1; kinase AKT1; read-out: Percent inhibition AKT1. In a few lines: as §1

Experiment [8] concerns the target T8, panel of 203 kinases (Homo sapiens, UniProt Q13557).
T8 construct: purchased DiscoverX (KINOMEscan)
Conditions: 10 µM, n=1; kinase CAMK2D; read-out: Percent inhibition CAMK2D. The gist of the method: as §1

The target in experiment [9] is T9, panel of 203 kinases (Homo sapiens, UniProt P42684).
T9 construct: purchased DiscoverX (KINOMEscan)
The settings on record: 10 µM, n=1; kinase ABL2; read-out: Percent inhibition ABL2. In a few lines: as §1

In experiment [10] the target is T10, panel of 203 kinases (Homo sapiens, UniProt P51813).
T10 construct: purchased DiscoverX (KINOMEscan)
T10 sequence (P51813 1-675): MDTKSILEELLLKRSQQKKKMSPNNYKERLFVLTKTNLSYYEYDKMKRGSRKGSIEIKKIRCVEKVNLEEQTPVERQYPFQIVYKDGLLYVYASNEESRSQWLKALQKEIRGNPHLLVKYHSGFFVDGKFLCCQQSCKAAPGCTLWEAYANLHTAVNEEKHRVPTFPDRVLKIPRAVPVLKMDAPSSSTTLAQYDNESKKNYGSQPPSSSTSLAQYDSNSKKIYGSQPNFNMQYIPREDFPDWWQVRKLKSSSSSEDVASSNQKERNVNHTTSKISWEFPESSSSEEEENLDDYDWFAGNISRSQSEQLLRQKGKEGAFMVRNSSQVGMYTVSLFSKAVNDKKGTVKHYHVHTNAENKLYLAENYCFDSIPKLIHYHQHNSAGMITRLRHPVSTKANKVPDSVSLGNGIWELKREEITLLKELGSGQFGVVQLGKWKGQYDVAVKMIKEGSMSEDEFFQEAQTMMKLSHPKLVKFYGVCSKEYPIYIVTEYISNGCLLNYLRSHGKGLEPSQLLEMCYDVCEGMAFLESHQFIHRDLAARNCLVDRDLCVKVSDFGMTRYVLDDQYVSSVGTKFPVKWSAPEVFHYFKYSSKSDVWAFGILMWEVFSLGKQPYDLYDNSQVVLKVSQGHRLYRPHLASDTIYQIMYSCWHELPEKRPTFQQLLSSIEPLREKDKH
Conditions: 10 µM, n=1; kinase BMX; read-out: Percent inhibition BMX. In a few lines: as §1

The target of experiment [11] is T11, panel of 203 kinases (Homo sapiens, UniProt Q9HC98).
T11 construct: purchased DiscoverX (KINOMEscan)
T11 sequence (Q9HC98 whole entry): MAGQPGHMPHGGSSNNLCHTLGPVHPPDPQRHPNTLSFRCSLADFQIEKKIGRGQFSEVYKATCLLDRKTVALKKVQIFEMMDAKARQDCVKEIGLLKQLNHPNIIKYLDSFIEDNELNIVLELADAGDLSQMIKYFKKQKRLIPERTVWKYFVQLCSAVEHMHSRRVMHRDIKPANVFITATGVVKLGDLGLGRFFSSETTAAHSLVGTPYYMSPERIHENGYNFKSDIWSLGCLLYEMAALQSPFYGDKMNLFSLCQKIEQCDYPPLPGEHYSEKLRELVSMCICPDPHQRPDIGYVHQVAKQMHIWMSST
The settings on record: 10 µM, n=1; kinase NEK6; read-out: Percent inhibition NEK6. The gist of the method:
as §1

In experiment [12] the target is T12, panel of 203 kinases (Homo sapiens, UniProt Q96RR4).
T12 construct: purchased DiscoverX (KINOMEscan)
T12 sequence (Q96RR4 whole entry): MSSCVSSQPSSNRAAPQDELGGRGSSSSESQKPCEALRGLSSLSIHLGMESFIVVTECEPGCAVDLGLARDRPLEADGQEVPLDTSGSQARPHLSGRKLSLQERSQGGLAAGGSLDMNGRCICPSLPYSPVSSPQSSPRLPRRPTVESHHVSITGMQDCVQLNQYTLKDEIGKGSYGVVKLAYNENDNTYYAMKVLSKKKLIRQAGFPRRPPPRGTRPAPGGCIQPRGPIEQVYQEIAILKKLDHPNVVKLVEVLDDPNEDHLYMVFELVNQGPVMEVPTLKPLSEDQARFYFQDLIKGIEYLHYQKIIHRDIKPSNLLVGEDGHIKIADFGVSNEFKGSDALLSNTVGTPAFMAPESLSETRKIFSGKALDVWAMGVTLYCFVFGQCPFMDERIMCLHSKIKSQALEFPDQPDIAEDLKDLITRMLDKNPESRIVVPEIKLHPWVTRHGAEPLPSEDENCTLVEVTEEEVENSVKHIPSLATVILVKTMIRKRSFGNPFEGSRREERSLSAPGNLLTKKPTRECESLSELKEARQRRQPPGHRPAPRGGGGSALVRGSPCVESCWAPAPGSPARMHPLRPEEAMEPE
Conditions: 10 µM, n=1; kinase CAMKK2; read-out: Percent inhibition CAMKK2. The gist of the method: as §1

10 compounds from article PMC9927415, “Tyrosine Kinase Inhibitors Display Potent Activity against Cryptosporidium parvum” (Microbiology Spectrum, 2022) can be followed below.

By inhibition is commonly meant the share of the control response that was lost under treatment.

T4 sequence (Q5VT25 whole entry): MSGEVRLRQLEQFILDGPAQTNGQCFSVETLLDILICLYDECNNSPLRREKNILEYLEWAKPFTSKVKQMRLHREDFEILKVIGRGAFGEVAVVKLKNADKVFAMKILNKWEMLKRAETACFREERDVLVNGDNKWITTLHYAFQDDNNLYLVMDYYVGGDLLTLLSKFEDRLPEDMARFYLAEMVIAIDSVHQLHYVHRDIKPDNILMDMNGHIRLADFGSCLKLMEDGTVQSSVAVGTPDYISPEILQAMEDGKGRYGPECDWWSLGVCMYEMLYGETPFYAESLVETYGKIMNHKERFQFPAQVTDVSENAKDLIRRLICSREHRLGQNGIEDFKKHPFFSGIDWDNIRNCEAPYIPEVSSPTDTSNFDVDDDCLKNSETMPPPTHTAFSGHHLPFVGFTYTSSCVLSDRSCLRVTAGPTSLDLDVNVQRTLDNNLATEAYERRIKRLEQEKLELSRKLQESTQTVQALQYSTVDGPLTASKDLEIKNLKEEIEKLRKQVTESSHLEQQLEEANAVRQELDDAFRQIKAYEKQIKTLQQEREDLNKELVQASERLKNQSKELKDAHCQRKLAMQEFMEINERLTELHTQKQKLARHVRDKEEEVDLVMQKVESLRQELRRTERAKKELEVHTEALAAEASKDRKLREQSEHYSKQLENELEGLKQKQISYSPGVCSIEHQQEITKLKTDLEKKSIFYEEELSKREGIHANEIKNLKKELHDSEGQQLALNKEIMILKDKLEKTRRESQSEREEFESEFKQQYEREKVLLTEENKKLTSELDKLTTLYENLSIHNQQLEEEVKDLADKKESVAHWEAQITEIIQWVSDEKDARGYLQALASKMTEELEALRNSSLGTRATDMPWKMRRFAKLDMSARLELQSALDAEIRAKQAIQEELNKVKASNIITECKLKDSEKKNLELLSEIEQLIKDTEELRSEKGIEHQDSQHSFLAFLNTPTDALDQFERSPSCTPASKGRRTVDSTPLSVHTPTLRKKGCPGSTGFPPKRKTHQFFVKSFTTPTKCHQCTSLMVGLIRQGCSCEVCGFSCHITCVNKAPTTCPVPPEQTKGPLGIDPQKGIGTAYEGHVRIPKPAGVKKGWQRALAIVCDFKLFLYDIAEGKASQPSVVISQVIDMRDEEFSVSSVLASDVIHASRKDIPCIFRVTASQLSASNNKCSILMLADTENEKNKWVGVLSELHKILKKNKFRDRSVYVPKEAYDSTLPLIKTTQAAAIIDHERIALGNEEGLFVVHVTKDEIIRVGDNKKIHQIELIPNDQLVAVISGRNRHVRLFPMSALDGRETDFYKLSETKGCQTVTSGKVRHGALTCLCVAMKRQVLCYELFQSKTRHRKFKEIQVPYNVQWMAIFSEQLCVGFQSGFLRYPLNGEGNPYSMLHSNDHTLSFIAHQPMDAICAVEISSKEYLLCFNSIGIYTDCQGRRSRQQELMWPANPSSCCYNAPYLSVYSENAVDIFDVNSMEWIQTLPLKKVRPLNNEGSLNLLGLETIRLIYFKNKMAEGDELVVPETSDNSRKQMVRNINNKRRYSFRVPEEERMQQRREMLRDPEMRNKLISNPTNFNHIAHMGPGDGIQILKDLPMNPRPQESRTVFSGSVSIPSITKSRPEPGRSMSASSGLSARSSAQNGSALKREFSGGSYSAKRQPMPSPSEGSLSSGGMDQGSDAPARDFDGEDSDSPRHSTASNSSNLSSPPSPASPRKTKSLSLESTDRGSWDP
T1 sequence (P08581 25-1390): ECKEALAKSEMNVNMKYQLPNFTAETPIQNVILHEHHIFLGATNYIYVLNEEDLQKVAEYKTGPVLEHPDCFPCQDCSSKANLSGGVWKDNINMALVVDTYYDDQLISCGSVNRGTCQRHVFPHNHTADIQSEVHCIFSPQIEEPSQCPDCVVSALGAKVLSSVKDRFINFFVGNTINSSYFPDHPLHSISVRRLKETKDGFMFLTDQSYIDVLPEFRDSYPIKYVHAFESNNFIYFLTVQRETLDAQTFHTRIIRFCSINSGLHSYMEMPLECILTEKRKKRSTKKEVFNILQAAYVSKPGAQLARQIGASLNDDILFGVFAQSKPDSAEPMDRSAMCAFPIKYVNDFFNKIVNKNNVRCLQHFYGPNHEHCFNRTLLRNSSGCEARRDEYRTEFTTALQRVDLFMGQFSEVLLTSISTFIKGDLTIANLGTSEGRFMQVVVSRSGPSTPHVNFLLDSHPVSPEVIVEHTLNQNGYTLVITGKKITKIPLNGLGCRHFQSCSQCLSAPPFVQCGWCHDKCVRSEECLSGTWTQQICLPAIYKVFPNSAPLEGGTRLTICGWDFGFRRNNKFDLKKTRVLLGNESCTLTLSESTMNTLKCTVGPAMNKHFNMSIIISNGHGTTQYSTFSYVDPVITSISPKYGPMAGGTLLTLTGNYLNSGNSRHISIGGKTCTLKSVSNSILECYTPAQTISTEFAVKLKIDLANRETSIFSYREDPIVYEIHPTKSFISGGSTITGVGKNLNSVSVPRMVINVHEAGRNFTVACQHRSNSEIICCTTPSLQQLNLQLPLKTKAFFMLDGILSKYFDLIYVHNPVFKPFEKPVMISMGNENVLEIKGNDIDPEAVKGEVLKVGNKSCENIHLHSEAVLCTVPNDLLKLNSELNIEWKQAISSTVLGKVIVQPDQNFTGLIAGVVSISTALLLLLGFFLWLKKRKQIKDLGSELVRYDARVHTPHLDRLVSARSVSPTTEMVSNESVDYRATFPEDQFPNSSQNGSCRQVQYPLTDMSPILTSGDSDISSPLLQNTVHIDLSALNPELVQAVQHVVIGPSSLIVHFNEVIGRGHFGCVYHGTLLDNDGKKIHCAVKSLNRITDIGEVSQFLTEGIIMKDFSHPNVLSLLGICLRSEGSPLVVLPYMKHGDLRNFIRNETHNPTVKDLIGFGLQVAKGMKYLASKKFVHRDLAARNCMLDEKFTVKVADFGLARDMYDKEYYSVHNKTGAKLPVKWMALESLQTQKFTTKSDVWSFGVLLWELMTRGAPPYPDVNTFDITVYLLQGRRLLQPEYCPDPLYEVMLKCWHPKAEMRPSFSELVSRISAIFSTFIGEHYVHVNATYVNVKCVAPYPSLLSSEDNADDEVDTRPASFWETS
T8 sequence (Q13557 whole entry): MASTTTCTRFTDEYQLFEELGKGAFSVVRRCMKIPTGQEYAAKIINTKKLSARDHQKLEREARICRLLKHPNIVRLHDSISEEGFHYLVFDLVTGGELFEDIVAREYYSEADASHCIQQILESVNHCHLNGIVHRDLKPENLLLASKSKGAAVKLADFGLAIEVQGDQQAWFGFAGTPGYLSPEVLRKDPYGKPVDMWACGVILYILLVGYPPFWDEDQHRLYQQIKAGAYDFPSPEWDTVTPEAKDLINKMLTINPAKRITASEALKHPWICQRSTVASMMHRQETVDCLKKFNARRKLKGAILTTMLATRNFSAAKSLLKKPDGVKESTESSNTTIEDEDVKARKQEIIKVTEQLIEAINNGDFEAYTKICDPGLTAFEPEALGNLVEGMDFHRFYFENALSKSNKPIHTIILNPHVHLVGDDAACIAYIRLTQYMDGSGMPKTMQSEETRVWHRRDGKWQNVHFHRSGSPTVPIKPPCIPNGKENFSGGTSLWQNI

In the case of `CN1CCN(c2ccc(Nc3nccc(-c4cnn5ncccc45)n3)cc2C#N)CC1` [Compound 1], the inhibition at 10 µM turned out to be 0% in experiment [1]; 83% in [2]; 96.5% in [3]; 0% in experiment [4]; 79% in [5]; 84.8% in [6]. Further, the inhibition at 10 µM in experiment [7] came out at 0%; in [8] it was 96.5%; in experiment [9], 95%; in [10], 0%; in [11] it was 100%; in [12], 98%.

Take `COc1ccc(Nc2nccc(-c3cnn4ncccc34)n2)cc1` [Compound 2]: the inhibition at 10 µM is 68.8% in experiment [1]; 0% in experiment [2]; 91.1% in experiment [3]; 0% in experiment [4]; 0% in experiment [5]; 63.8% in experiment [6]. Besides, the inhibition at 10 µM was 0% in experiment [7]; 79.5% in experiment [8]; 92.5% in [9]; 0% in experiment [10]; 100% in experiment [11]; 96.3% in experiment [12].

Regarding `Cc1ccc(O)cc1Nc1ccnc(Nc2cccc(C(N)=O)c2)n1` [Compound 3], the inhibition at 10 µM came out at 0% in experiment [1]; 100% in [2]; 0% in experiment [3]; 0% in [4]; 0% in experiment [5]; 99.6% in [6]. Also, the inhibition at 10 µM in [7] amounted to 0%; in experiment [8], 0%; in [9], 100%; in experiment [11], 0%; in experiment [12], 0%.

Regarding `Cc1ccc(O)cc1N(C)c1ccnc(Nc2cccc(S(N)(=O)=O)c2)n1` [Compound 4], the inhibition at 10 µM in experiment [1] was 90.2%; in experiment [2], 100%; in experiment [3], 0%; in [4], 87%; in experiment [5], 0%; in experiment [6], 99.4%. In addition, the inhibition at 10 µM in experiment [7] was 0%; in experiment [8], 0%; in experiment [9], 100%; in experiment [10], 100%; in [11], 0%; in [12], 0%.

As to `Fc1cccc(COc2ccc(Nc3ncnc4c3CN(CCN3CCOCC3)CC4)cc2Cl)c1` [Compound 6], the inhibition at 10 µM in [1], in experiment [2], in experiment [3], in [4], in [5] and in experiment [6] was 0% in each case. Further, the inhibition at 10 µM in experiment [7], in experiment [8], in experiment [9], in [10], in experiment [11] and in [12] was 0% each time.

Regarding `COc1cc(Nc2nccc(-c3sc(N)nc3-c3cccc(NC(=O)c4c(F)cccc4F)c3)n2)cc(OC)c1OC` [Compound 7], the inhibition at 10 µM was determined as 99.6% in experiment [1]; 100% in [2]; 85.7% in experiment [3]; 100% in [4]; 0% in experiment [5]; 99% in experiment [6]. Moreover, the inhibition at 10 µM in [7] stood at 0%; in experiment [8], 0%; in experiment [9], 100%; in [10], 100%; in [11] it was 97.4%; in experiment [12], 0%.

For `C[C@@H](Oc1cc(-c2cnc3ccccn23)sc1C(N)=O)c1ccccc1Cl` [Compound 8], the inhibition at 10 µM is 78.4% in experiment [1]; 0% in experiment [2]; 96% in experiment [3]; 0% in experiment [4]; 0% in experiment [5]; 0% in experiment [6]. In addition, the inhibition at 10 µM in [7] was 0%; in [8], 0%; in experiment [9], 0%; in experiment [10], 0%; in [11], 0%; in experiment [12] it was 81.2%.

As to `c1ccc(COc2cccc(-c3ccnc4[nH]ccc34)c2)cc1` [Compound 9], the inhibition at 10 µM in experiment [1], in [2], in experiment [3], in [4], in [5] and in experiment [6] was 0% throughout. Further, the inhibition at 10 µM in experiment [7], in experiment [8], in experiment [9], in experiment [10], in experiment [11] and in [12] was 0% each time.

Consider `Clc1ccc(Nc2ncc(-c3ccccc3)s2)cc1` [Compound 10], for which the inhibition at 10 µM in experiment [1], in [2], in experiment [3], in experiment [4], in [5] and in experiment [6] was 0% in each case. The inhibition at 10 µM in [7], in experiment [8], in experiment [9], in experiment [10], in [11] and in experiment [12] was 0% in each case.

For the compound `Nc1ncc2c(-c3ccncc3)c[nH]c2n1` [Compound 11], the inhibition at 10 µM in [1] stood at 0%; in experiment [2], 0%; in experiment [3], 0%; in [4], 0%; in experiment [5] it was 73.2%; in [6], 0%. In addition, the inhibition at 10 µM in experiment [7], in experiment [8], in [9], in [10], in experiment [11] and in experiment [12] was 0% throughout.
